One test has as its system L. infantum amastigotes. As to the kind of experiment: Antiamastigote assay (L. infantum), ex vivo intracellular model of mice macrophages, microscopy. The format is cell-based, Leishmania (L.) infantum. As to conditions: Leishmania infantum, Peritoneal macrophage, 96 h, ± SD, intracellular, peritoneal macrophages, read-out: L. infantum IC50 amastigotes.
In a further test the test system is T. cruzi trypomastigotes. As to the kind of experiment: Antitrypomastigote assay (T. cruzi), resazurin. The format is cell-based, Trypanosoma (T.) cruzi. The conditions noted are these: Trypanosoma cruzi, 24 h, ± SD, resazurin, read-out: T. cruzi IC50 trypomastigotes. (The colour change of resazurin is a common sign of viable cells or microbes.)
Another test has as its system mNG::RAD51 promastigotes. Put plainly: mNG::RAD51 nuclear foci studies. Format: cell-based, Leishmania (L.) mexicana. As to conditions: 50 μM, up to 24 h. The text has this:
DSBs often lead to cytotoxicity, which could be an explanation for the observed compound activity.[44]−[46]Leishmania employ the RAD51 DNA recombinase protein as part of its DNA repair machinery to fix naturally occurring nuclear DSBs via homologous recombination.[47]−[50] Using a CRISPR/Cas9 gene editing strategy,[51] we generated a genetically modified cell line with mNeonGreen tagged RAD51. This would allow observation of fluorescent RAD51 protein recruitment to foci in the nucleus corresponding to DSB accumulation, as has been shown in T. brucei.[52],[53] Phleomycin was used as a positive control to induce DSBs,[54] which led to the expected observation of accumulation of RAD51 as green dots in the nucleus in 80% of cells from as early as 2 h posttreatment (Figure 2D). […] We can therefore conclude that the BI compounds tested are unlikely to act via DSBs (albeit this methodology is sensitive only to DSBs in nuclear DNA), and another mechanism of cell cycle disruption is responsible for the breakdown in the healthy cell cycle.
NCTC cells (6 × 10^4/well) were added to a 96-well plate. Treatments of the cells with selected compounds (serially diluted 1.5 to 200 μM) was performed in a humidified incubator for 96 h at 37 °C and with 5% CO2.
The MTT colorimetric method was used to determine the 50% cytotoxic concentration (CC50) and the selectivity index (CC50 against NCTC cells/IC50 against amastigotes).15 […]
[…] […] Statistical significance was derived from a two-tailed T-test.
The Graph Pad Prism 5 software was used to perform sigmoid dose-response curves for the determination of […]
[…] At 6 h and 24 h post-treatment, a 1 mL aliquot was taken for imaging. The cell cycle experiment was preformed twice independently.
Generation of mNG::RAD51 tagged cell line
The single-stranded DNA-binding protein RAD51, associated with DNA Repair, LmxM.28.0550 was tagged with endogenous fluorescent protein mNeonGreen (mNG) at the N-terminus. […]
Primers for constructs and sgRNA were designed using LeishGEdit (http://www.leishGEdit.net). […]

As to `COc1cc2c(cc1OC)[C@H](Cc1ccc(Br)cc1)N(C)CC2` [(S)-9a], the IC50 in the test on L. infantum amastigotes is 13.3 ± 0.9 µM; in the test on T. cruzi trypomastigotes it was 14.4 ± 5.5 µM. Moreover, the RAD51 nuclear foci result in the test with mNG::RAD51 promastigotes is given as “no RAD51 nuclear foci”.
`COc1cc2c(cc1OC)[C@H](Cc1ccc(OC)c(OCc3ccccc3)c1)N(C)CC2` [(S)-9b]: the IC50 stood at 26.7 ± 2 µM with L. infantum amastigotes and 57.7 ± 2.3 µM in the test on T. cruzi trypomastigotes. In addition, the RAD51 nuclear foci entry with mNG::RAD51 promastigotes is “no RAD51 nuclear foci”.
In the case of `COc1cc2c(cc1OC)[C@@H](Cc1ccc(Oc3cc(C[C@H]4c5cc(OC)c(OC)cc5CCN4C)ccc3OC)cc1)N(C)CC2` [(S,R)-11, (−)-O,O′-dimethylgrisabine], the IC50 was more than 150 µM with L. infantum amastigotes and 2.6 ± 2.9 µM with T. cruzi trypomastigotes.

Usually IC50 stands for the concentration needed to halve the response being measured.

The record behind these values is paper PMC10900488, “Synthesis and Evaluation of (Bis)benzyltetrahydroisoquinoline Alkaloids as Antiparasitic Agents” (JACS Au, 2024).
